Reference: patent US7871978B2, “Bone tropic peptides” (University of Virginia Patent Foundation, priority 2004, dated 2011)

Assays:
[1] = test system: bone and marrow tissue sections (mouse femur, rib); experiment: Biotinylated peptide binding to bone/marrow tissue sections, Avidin-FITC fluorescence; set-up: key to Localization of peptide binding: Bone/Marrow (tissue sections): ✓: Check marks indicate positive binding observed with FITC; −: a dash indicates a negative result
Experimental: Methods: Four-week old Swiss Webster mice were euthanized; the femurs were excised and decalcified in 0.25M EDTA in PBS solution for 5 days, and washed in PBS for 24 hours. The femoral shafts were obtained by cutting off the proximal and distal ends of the femur. The femoral shafts were placed in Tissue-Tek O.C.T. Compound (Sukura Finetek, Torrance, Calif.) and frozen at −20° C. overnight. Sections were cut at 10 μm serially with a cryomicrotome, rinsed with 1% BSA in PBS three times. To block non-specific reaction sections were incubated with Avidin/Biotin Blocking Kit (Vector Laboratories, Inc. Burlingame, Calif.) according to the manufacturer's instructions. Following another rinse with PBS, 150 μl 10 mM solution of each biotinylated peptide (L1, L2, L7, R1, R8) was added to the slides and incubated for 1 hour at room temperature. In negative controls, only PBS was added. After rewashes with 1% BSA, 150 μl of 1:50,000 dilution of Avidin-FITC was added to each slide and incubated overnight at 4° C.
The sections were washed with 1% BSA in PBS and mounted with Vectashield (Vector Laboratories Inc., Burlingame, Calif.). Fluorescence was visualized using a Nikon eclipse E600 microscope (Nikon, Melville, N.Y.) equipped with a 535 nm wavelength fluorescein filter. Images were obtained using a Sony DKC-5000 digital camera (Sony Electronics Inc.) and processed with Adobe Photoshop software (Adobe Systems Incorporated, San Jose, Calif.).
(§1) For localization of peptide binding to cells and tissue sections, biotinylated peptides were synthesized. Fluorescein-isothiocyanate (FITC) labeled Avidin was used to localize the peptides on cells in culture and in tissue sections in vitro by epiluminescence microscopy. In addition, the biotinylated peptides were detected at concentrations as low as 1 μM in slot blots.
Cryosections of decalcified femurs harvested from 4 week BALB/c mice were incubated with biotinylated peptide and Avidin-FITC. […] The distribution of fluorescence throughout the marrow was uneven. […] In control slides incubated with PBS without peptide, none of the cells could be detected by fluorescence (not shown). […]

[2] = test system: bovine aortic endothelial cells; experiment: Effect of peptides on adherent bovine aortic endothelial cells on fibronectin or collagen; type: cell-based; conditions: 0.1M biotinylated peptide, 1 hour; cells adhered four hours on fibronectin or collagen
Experimental: Peptides from the phage display project were added to bovine aortic endothelial cells in culture. The endothelial cells had adhered to a surface coated with collagen or with fibronectin.
Experiment 1: Bovine aortic endothelial cells were plated on glass slides that were coated either fibronectin or collagen. The cell density was 5,000 cells/well. After the cells adhered for four hours, 0.1M of biotinylated peptide was added to each well. The following peptides were used: L1, L2, L5, L6, L7, L12, L13, L14, L19, R1, R3, and R8.
To perform this experiment, the media was removed and the cells were rinsed with 1×PBS plus 1% BSA three times. Peptides were diluted in 1×PBS plus 1% BSA, added to cells and incubated for 1 hour. The cells were rinsed three times with 1% BSA in PBS, and fixed with 2% parafomaldehyde. Aldehyde groups were blocked with 0.2 M HCl-glycine in PBS, the cells were rinsed three times with 1% BSA in PBS and ExtrAvidin-FITC (1:200 dilution) was added and incubated overnight at 4° C. The cells were rinsed three times with 1% BSA in PBS. The chambers and the gasket were removed from each slide, Vectashield was added, covered and viewed on a Nikon microscope. Images were acquired using a Coolsnap digital camera and Metavue software. […]
Experiment 3: The cells were adherent for about 6 hours and peptides at various concentrations were added to the cells. The concentrations of each of the peptides used in this experiment were: 0.1M, 0.01M, 0.001M and 0.0001M biotinylated peptide. The following peptides were tested: L1, L5, L6, L7, L13, L14, R1, R3, R8, DIP1 and PBS control (SEQ ID NOs:1, 3, 4, 5, 8, 9, 11, 13, 14, and 29).

bone and bone marrow = experiment: In vivo biopanning with 12-mer peptide phage display library; set-up: species or system BALB/c mice; conditions: for PERCENT FREQUENCY: phage eluted from bone and bone marrow; for PHAGE SEQUENCE FREQUENCY (number of times the sequence was found in a group of plaques): phage eluted from bone and bone marrow after repeated rounds
Text: The Ph.D.-12 Phage Display Peptide Library Kit (New England Biolabs, Beverly, Mass.) used in this study is based on a combinatorial library of random peptide 12-mers fused to a minor coat protein (pIII). […] The peptide is followed by a short spacer of four amino acid residues, the first three residues of which are glycine and the fourth of which is serine, and then the wild-type III sequence. The library consists of approximately 2.7×10^9 electroporated sequences, amplified once to yield approximately 55 copies of each sequence.
For in vivo biopanning, BALB/c mice 8 weeks of age were injected 3.4×10^10 pfu of phage into the heart. The animals were euthanized after 5 minutes, and the tissues (bone, bone marrow, kidney, liver, and spleen) were collected for analysis. The bound phage was eluted according the manufacturer's instructions. The eluted phage was titered, amplified, purified, and injected again at the same concentration.
The frequency of each peptide in bone and bone marrow was compared with its location in other tissues such as liver, kidney, lung, spleen, and brain. Thirteen unique peptide sequences eluted from bone and marrow were identified were identified by sequencing phage DNA. The peptides were synthesized using the polystyrene solid support on a Protein Technologies Symphony Multiple Channel Synthesizer.

[3] = test system: Unicortical femoral defects; experiment: Peptide-mediated osteogenesis in cortical bone defects (Example 8); type: in vivo, Fisher 344 rats; conditions: 100 mM peptide in gelfoam, two weeks postoperatively, versus gelfoam+PBS
Experimental: In an in vivo study, all 13 peptides at a concentration of 100 mM were tested for their ability to potentiate osteogenesis. A gelfoam cylinder 1.5 mm in diameter 2 mm in length was used as carrier for the peptides. Unicortical femoral defects 1.5 mm in diameter were created bilaterally in Fisher 344 rats; the left femoral defect was filled with gelfoam+PBS (Control), and the right femur with gelfoam+peptide. The samples were harvested and examined two weeks postoperatively. To examine the effect of peptide concentration on cortical bone regeneration, peptide L7 (SEQ ID NO:5) was used at 1, 5, and 20 mM. […] The time course of cortical bone repair with 20 mM L7 was examined at 5, 10, 15, and 20 days.

LNCaP cells = experiment: Prostate cancer cell adhesion to BMEC: LNCaP; type: cell-based; conditions: FIG. 8; preliminary results
Experimental: (§2) FIG. 8 is a graphic representation of the effects of various peptides on altering cellular adhesion to BMEC cells in vitro. LNCaP cells were compared directly to C4-2 cells for the ability of specific phage-derived peptides to alter cellular adhesion to BMEC cells in vitro. Adhesion was measured at […]. C=control (no peptide). The ordinate represents percent of acid precipitable counts bound and the abscissa indicated the cells treated and the peptides used.
(§3) The phage-derived bone-targeting peptides isolated by biopanning were tested for their ability to alter the adhesion of prostate cancer cells to a human bone marrow endothelial cell line (see FIG. 8). In this assay, LNCaP cells were compared directly to the more metastatic, bone colonizing derivative, C4-2.

C4-2 cells = experiment: Prostate cancer cell adhesion to BMEC: C4-2; type: cell-based; conditions: FIG. 8; preliminary results
Experimental: as §2, §3

[4] = test system: prostate cancer cells (CaP); experiment: Prostate cancer (CaP) cell adhesion to BMEC, cell line not distinguished; type: cell-based; conditions: 50 μM and 100 μM tested
Experimental: as §2, §3
This observation will be examined further and exploited by the aims of this proposal to identify the binding partners of nucleolin in prostate cancer cells as well as to investigate bone tropic peptides as potential inhibitors of prostate cancer metastasis.

[5] = test system: human bone marrow endothelial cells (HBME); experiment: Peptide binding to HBME cells in culture (Avidin-FITC); set-up: key: ✓: Check marks indicate positive binding observed with FITC; −: a dash indicates a negative result
Experimental: as §1
(§4) Bone marrow cells isolated from mouse femur were lifted with ethylenediaminetetraacetic acid (EDTA) and trypsin, resuspended, and allowed to attach on fibronectin-coated chamber slides for Avidin-FITC staining. […] The D1 cell is a multipotential mesenchymal stem-like line that was isolated from bone marrow and shown to have the characteristics of osteoprogenitor cells. This cell line has been well established and used successfully in several in vitro and in vivo studies in our laboratory. Peptide binding to human bone marrow endothelial cells (HBME) and bovine aortic endothelial cells (BAEC) in culture was also tested using the same procedure.

[6] = test system: bovine aortic endothelial cells (BAEC); experiment: Peptide binding to BAEC in culture (Avidin-FITC); set-up: key: ✓: Check marks indicate positive binding observed with FITC; −: a dash indicates a negative result
Experimental: as §1, §4

[7] = test system: Bone marrow cells isolated from mouse femur; experiment: Peptide binding to bone marrow cells in culture (Avidin-FITC); set-up: key to Localization of peptide binding: Marrow (cells in culture): ✓: Check marks indicate positive binding observed with FITC; −: a dash indicates a negative result
Experimental: as §1, §4

[8] = test system: Membrane and cytosol fractions from bovine aortic endothelial cells; experiment: Affinity chromatography of BAEC fractions on immobilized peptide; type: binding
Experimental: Membrane and cytosol fractions from human bone marrow endothelial cells and bovine aortic endothelial cells were prepared and used to identify the components from within these fractions that bind to the peptides using affinity chromatography). […] Cell surface nucleolin is present at higher concentrations in actively dividing cells and is down regulated in cells when they become quiescent. Nucleolin is the apparent cell surface receptor of E-coli intimin-gamma. Cell bound intimin has been proposed to trigger a host cell response similar to the extension of filipodia when cells bind to laminin. […] Table 3 provides a summary of peptide-binding partners (putative receptors) identified by affinity chromatography of cell lysates.

[9] = BALB/c mouse femur cryosections, biotinylated peptide
[10] = Swiss Webster mouse femur cryosections, 10 mM biotinylated peptide

Substance	Binding to rib and long bone growth plate sections ([1]; biotinylated peptides, 1/50,000 dilution of Avidin-FITC)	Effect on adherent BAEC (Experiment 1) [2]	PERCENT FREQUENCY (bone and bone marrow)	PHAGE SEQUENCE FREQUENCY (number of times the sequence was found in a group of plaques) (bone and bone marrow)	Effectiveness at stimulating osteogenesis and cortical bone repair [3]	Effect on adhesion of LNCaP cells to BMEC (LNCaP cells)	Effect on adhesion of C4-2 cells to BMEC (C4-2 cells)	Concentrations at which peptide inhibits prostate cancer cell adhesion to BMEC [4]	Cell shape preferentially recognized by peptide [1, 9]	Extent of marrow cells detected by fluorescence [1, 9]	Localization of peptide binding: Bone/Marrow (tissue sections) ([1]; FITC)	Cell shape preferentially recognized by peptide [1, 10]	Extent of marrow cells detected by fluorescence [1, 10]	Localization of peptide binding: HBME [5]	Localization of peptide binding: BAEC [6]	Localization of peptide binding: Marrow (cells in culture) ([7]; FITC)	Binding to adherent cells from bone marrow blowouts ([7]; fibronectin-coated chamber slides, Avidin-FITC staining)	Binding partner from BAEC lysates ([8]; biotinylated peptide immobilized on avidin-agarose)	Identification of binding partners by affinity chromatography: BAEC ([8]; cell lysates)
ALA-THR-TRP-SER-HIS-HIS-LEU-SER-SER-ALA-GLY-LEU-GLY-GLY-GLY-SER (ATWSHHLSSAGLGGGS; listed as Homo sapiens) [Peptide R3]	no staining	the cells had lifted completely and most of the cells disappeared from the surface of the slides, leaving a lot of cell debris	34.5%	10/29	most effective at stimulating osteogenesis and cortical bone repair	dose-dependent inhibition of CaP cell invasion for both cell lines	dose-dependent inhibition of CaP cell invasion for both cell lines	at 100 μM only											
SER-TYR-SER-GLN-MET-ASP-PRO-PRO-ARG-SER-LEU-PRO-GLY-GLY-GLY-SER (SYSQMDPPRSLPGGGS; listed as Homo sapiens) [Peptide R8]			24.1%	7/29	most effective at stimulating osteogenesis and cortical bone repair				recognized the round cells preferentially	did not detect as many cells	✓	recognized the round cells preferentially	did not detect as many cells	✓	✓	✓	showed detectable binding	vimentin was found to bind	✓Vimentin
